According to paper PMC9539280 (Advanced Science, 2022):

What was measured:
[1] = tested on: hCMs
[2] = tested on: hCMs; assay: Spontaneous calcium transient measurement (Fluo-4) in hCMs; conditions: spontaneous, 6 days
[3] = escalating concentrations (lopinavir: high dosage only)

SMILES | spontaneous calcium transients [1] | calcium transient amplitude ([2]; escalating concentrations (1-20 μM)) | time to 50% decay of the calcium transients [2, 3] | time to peak of the calcium transients [2, 3]
Cc1cccc(/C=N/Nc2cc(N3CCOCC3)nc(OCCc3ccccn3)n2)c1 [Apilimod, apilimod] | no calcium transients were observed | – | – | –
CCC(CC)COC(=O)[C@H](C)N[P@](=O)(OC[C@H]1O[C@@](C#N)(c2ccc3c(N)ncnn23)[C@H](O)[C@@H]1O)Oc1ccccc1 [Remdesivir, remdesivir] | – | tended to decrease | significantly increased | significantly increased
